As a reminder, the EC50 is the midpoint of the concentration-response curve.

Drawing on patent US10703748B2, “Diazanaphthalen-3-yl carboxamides and preparation and use thereof” (Samumed, LLC, priority 2017, dated 2020), this text covers EC50 and inhibition for 16 compounds.

In test [1] the test system is Wnt-responsive Sp5-Luc reporter in SW480 colon carcinoma cells. Put plainly: Screening assay for Wnt activity (Sp5-Luc reporter gene assay). The conditions noted are these: Homo sapiens; for EC50: SW480.
The next test deals with IL-6. Put plainly: IL-6 inhibition in LPS-stimulated human peripheral blood mononuclear cells (HTRF). The conditions noted are these: Homo sapiens, PBMC; for EC50: 22 h; for inhibition at 10 µM: read-out: percentage in parentheses after EC50 >10. In general terms: TR-FRET usually uses a lanthanide donor and a delayed reading to cut background.
Test [2] has as its system α-smooth muscle actin (aSMA) positive LL29 cells. Put plainly: Inhibition of the fibrotic process: αSMA staining in TGF-β1 treated LL29 fibroblasts from IPF patients. The conditions noted are these: Homo sapiens, Fibroblast; for EC50: 96 h; for inhibition at 10 µM: read-out: percentage in parentheses after EC50 >10.
For another test, the target named is GSK3β kinase (Homo sapiens, UniProt P49841). The test can be described thus: GSK3β kinase activity (Ser/Thr 09 peptide Z-lyte FRET assay). It is filed as biochemical. The conditions noted are these: recombinant kinase, 46 μM ATP, one hour at room temperature; read-out: EC50.
Sequence of GSK3β kinase (P49841 whole entry): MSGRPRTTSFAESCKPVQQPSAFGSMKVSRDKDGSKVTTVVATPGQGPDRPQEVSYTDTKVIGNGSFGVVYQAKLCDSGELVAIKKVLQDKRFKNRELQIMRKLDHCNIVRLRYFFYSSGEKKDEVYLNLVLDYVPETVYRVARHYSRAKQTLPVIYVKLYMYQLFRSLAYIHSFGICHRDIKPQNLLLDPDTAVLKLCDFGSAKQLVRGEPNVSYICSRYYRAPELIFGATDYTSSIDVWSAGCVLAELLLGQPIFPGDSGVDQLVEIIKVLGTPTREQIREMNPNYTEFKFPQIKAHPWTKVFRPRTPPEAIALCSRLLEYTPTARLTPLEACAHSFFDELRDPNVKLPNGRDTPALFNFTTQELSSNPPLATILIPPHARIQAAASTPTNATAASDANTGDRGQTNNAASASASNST
Another test has as its target DYRK1A kinase (Homo sapiens, UniProt Q13627). Put plainly: DYRK1A kinase activity (Ser/Thr 18 peptide Z-lyte FRET assay).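 Further: kinase activity read as coumarin/fluorescein emission ratio after development step, with unphosphorylated and phosphorylated peptide forms setting 0% and 100% controls, values from dose-response curves.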 Type of test: biochemical. The conditions noted are these: recombinant DYRK1A, 30 μM ATP, one hour at room temperature.
The subject of test [3] is secreted cytokines TNFα, IL-6 and KC-GRO. Put plainly: Secreted cytokines in Lipopolysaccharide-stimulated BV-2 cells (Table 9 does not say which cytokine). The settings on record: Mus musculus, BV-2, 5 h; read-out: EC50. Type of test: cell-based, mouse.
The test system of test [4] is SW480 colon carcinoma cells. The test can be described thus: Cell viability assay (CellTiter-Glo). The settings on record: Homo sapiens; for EC50: SW480, 96 h; for inhibition at 10 µM: SW480, read-out: percent inhibition at 10 μM. (In general: ATP-based viability assays read luminescence as a measure of living cells.)

Method for GSK3β kinase: Each compound is dissolved in DMSO as a 10 mM stock and used to prepare compound source plates. Serial dilution (1:3, 11-point dose-response curves from 10 μM to 0.0003 μM) and compound transfer was performed using the ECHO 550 (Labcyte, Sunnyvale, Calif.) into 1536-well black-walled round bottom plates (Corning).
This is a non-radioactive assay using fluorescence resonance energy transfer (FRET) between coumarin and fluorescein to detect kinase activity which is represented as ratio of coumarin emission/fluorescein emission.
The mixture is allowed to incubate with the representative compounds for one hour at room temperature. All reactions were performed in duplicate. Unphosphorylated (“0% Control”) and phosphorylated (“100% control”) forms of Ser/Thr 18 serve as control reactions.
After incubation, diluted Development Buffer is added to the reaction and allowed to further incubate for one hour at room temperature.
Dose-response curves are generated and inhibitory concentration (IC50) values are calculated using non-linear regression curve fit in the Dotmatics' Studies Software (Bishops Stortford, UK).

On to `Cn1cc(-c2cc3cc(NC(=O)c4ccc5nccnc5c4)ncc3cn2)cn1` [Compound 3843, N-(6-(1-Methyl-1H-pyrazol-4-yl)-2,7-naphthyridin-3-yl)quinoxaline-6-carboxamide], for which the EC50 in test [1] was > 10000 nM; in the test with IL-6 it was > 10000 nM; in test [2], 1280 nM; on GSK3β kinase, 1160 nM; at DYRK1A kinase, 6 nM; in test [3], ≥ 10000 nM. Besides, the EC50 in test [4] is > 10000 nM. Besides, the inhibition at 10 µM in test [1] (SW480, read-out: percent inhibition at 10 μM) came out at 25%; in the test on IL-6, 6.8%; in test [4], 14%.
With `Cn1cc(-c2cnc3cnc(NC(=O)CCc4ccccc4)cc3c2)cn1` [Compound 2914, N-(3-(1-Methyl-1H-pyrazol-4-yl)-1,7-naphthyridin-6-yl)-3-phenylpropanamide], the EC50 in test [1] was 751 nM; in the test on IL-6 it was > 10000 nM; in test [2], 893 nM; on GSK3β kinase, 453 nM; at DYRK1A kinase it was 28 nM; in test [3], 131 nM. Further, in test [4], the response was half-maximal at 692 nM (EC50). In addition, the inhibition at 10 µM with IL-6 was determined as 5%.
With `Cn1cncc1-c1cc2cc(NC(=O)c3cccc(CN4CCCC4)c3)ncc2cn1` [Compound 4077, N-(6-(1-Methyl-1H-imidazol-5-yl)-2,7-naphthyridin-3-yl)-3-(pyrrolidin-1-ylmethyl)benzamide], the EC50 in test [1] was 200 nM; in the test on IL-6, > 10000 nM; in test [2] it was 1020 nM; at GSK3β kinase, 2280 nM; at DYRK1A kinase, 7 nM; in test [3], 2400 nM. For the same compound, in test [4], the concentration for a half-maximal effect (EC50) came to 2780 nM. Moreover, in the test with IL-6, the inhibition at 10 µM worked out at 3.6%.
`O=C(Nc1cc2nc(-c3cncs3)ccc2cn1)c1ccncc1` [Compound 625, N-(2-(Thiazol-5-yl)-1,6-naphthyridin-7-yl)isonicotinamide]: the EC50 in test [1] is 964 nM; in the test on IL-6, > 10000 nM; in test [2], 3010 nM; at GSK3β kinase, 8260 nM; on DYRK1A kinase, 4 nM; in test [3] it was 130 nM. The concentration giving a half-maximal response (EC50) in test [4] is > 10000 nM. For the same compound, the inhibition at 10 µM with IL-6 came to 6.5%; in test [4], 47.8%.
On to `Cn1cc(-c2cnc3cnc(NC(=O)C4CCN(CC5(C(F)(F)F)CC5)CC4)cc3c2)nn1` [Compound 3067, N-(3-(1-Methyl-1H-1,2,3-triazol-4-yl)-1,7-naphthyridin-6-yl)-1-((1-(trifluoromethyl)cyclopropyl)methyl)piperidine-4-carboxamide], for which the EC50 is 4500 nM in test [1]; > 10000 nM in the test on IL-6; > 10000 nM in test [2]; 836 nM on GSK3β kinase; 58 nM at DYRK1A kinase; 3900 nM in test [3]. In test [4], the EC50 was > 10000 nM. For the same compound, the inhibition at 10 µM in the test on IL-6 was found to be 0%; in test [2] it was 31.7%; in test [4], 42.2%.
Consider `CN1CCc2ccc(C(=O)Nc3ncc4ccc(-c5cnn(C)c5)cc4n3)cc2C1` [Compound 1109, 2-Methyl-N-(7-(1-methyl-1H-pyrazol-4-yl)quinazolin-2-yl)-1,2,3,4-tetrahydroisoquinoline-7-carboxamide], for which the EC50 is 1920 nM in test [1]; > 10000 nM with IL-6; > 10000 nM in test [2]; > 10000 nM at GSK3β kinase; 18 nM at DYRK1A kinase; 349 nM in test [3]. Also, the EC50 in test [4] came out at 9480 nM. Further, the inhibition at 10 µM with IL-6 was found to be 6.3%; in test [2], 16.4%.
Take `Cc1ncc(C(=O)Nc2cc3cc(-c4cnc(C)n4C)ncc3cn2)s1` [Compound 4074, N-(6-(1,2-Dimethyl-1H-imidazol-5-yl)-2,7-naphthyridin-3-yl)-2-methylthiazole-5-carboxamide]: the EC50 in test [1] was 2690 nM; with IL-6, > 10000 nM; in test [2], 3190 nM; on GSK3β kinase, 416 nM; at DYRK1A kinase, 7 nM; in test [3] it was 300 nM. In test [4], the EC50 worked out at 2310 nM. Also, in the test on IL-6, the inhibition at 10 µM came to 14%.
`CN1CCN(c2cc(C(=O)Nc3cc4nc(-c5cnn(C)c5)ccc4cn3)ccn2)CC1` [Compound 147, N-(2-(1-Methyl-1H-pyrazol-4-yl)-1,6-naphthyridin-7-yl)-2-(4-methylpiperazin-1-yl)isonicotinamide]: the EC50 was 102 nM in test [1]; 2200 nM in the test with IL-6; 410 nM in test [2]; > 10000 nM on GSK3β kinase; 7 nM at DYRK1A kinase; 122 nM in test [3]. Further, the response in test [4] was half-maximal at 311 nM (EC50).
On to `Nc1cncc(-c2cnc3cnc(NC(=O)c4ccc(OC5CCNCC5)cc4)cc3c2)c1` [Compound 3524, N-(3-(5-Aminopyridin-3-yl)-1,7-naphthyridin-6-yl)-4-(piperidin-4-yloxy) benzamide], for which the EC50 in test [1] was 3550 nM; in the test with IL-6 it was > 10000 nM; in test [2], > 10000 nM; at GSK3β kinase it was > 10000 nM; on DYRK1A kinase, 11 nM; in test [3], 582 nM. This compound also had an EC50 in test [4] of 3710 nM. For the same compound, the figures for the inhibition at 10 µM (in the test on IL-6; in test [2]) were 5.6% and 50%, respectively.
On to `CN(C)CCNc1cc(C(=O)Nc2cc3nc(-c4cnn(C)c4)ccc3cn2)ccn1` [Compound 164, 2-((2-(Dimethylamino)ethyl)amino)-N-(2-(1-methyl-1H-pyrazol-4-yl)-1,6-naphthyridin-7-yl)isonicotinamide], for which the EC50 in test [1] is 585 nM; in the test on IL-6 it was > 10000 nM; in test [2], 717 nM; at GSK3β kinase, 4010 nM; at DYRK1A kinase, 6 nM; in test [3], 165 nM. This compound also had a half-maximal effective concentration (EC50) in test [4] of 2770 nM. Also, in the test on IL-6, the inhibition at 10 µM amounted to 17.6%.
Consider `CC(C)OC(=O)N1CCC(n2cc(C(=O)Nc3ncc4ccc(-c5cnn(C)c5)cc4n3)cn2)CC1` [Compound 1141, Isopropyl 4-(4-((7-(1-methyl-1H-pyrazol-4-yl)quinazolin-2-yl)carbamoyl)-1H-pyrazol-1-yl)piperidine-1-carboxylate], for which the EC50 in test [1] came to 414 nM; in the test on IL-6 it was 3130 nM; in test [2] it was 1390 nM; on GSK3β kinase it was 4060 nM; on DYRK1A kinase, 8 nM; in test [3] it was 177 nM. Besides, the midpoint of the response in test [4], the EC50, lay at 717 nM.
With `Cc1ncc(-c2ccc3cnc(NC(=O)c4ccnc(N5CCN(C)CC5)c4)cc3n2)s1` [Compound 643, 2-(4-Methylpiperazin-1-yl)-N-(2-(2-methylthiazol-5-yl)-1,6-naphthyridin-7-yl)isonicotinamide], the half-maximal effective concentration (EC50) in test [1] was 688 nM; with IL-6 it was 9220 nM; in test [2], 1430 nM; on GSK3β kinase it was 8560 nM; on DYRK1A kinase, 10 nM; in test [3] it was ≥ 10000 nM. Besides, the EC50 in test [4] was 803 nM.
`CN1CC=C(c2cc(C(=O)Nc3ncc4ccc(-c5cncc(NC(C)(C)C)n5)cc4n3)ccn2)CC1` [Compound 1773, N-(7-(6-(tert-Butylamino)pyrazin-2-yl)quinazolin-2-yl)-1′-methyl-1′,2′,3′,6′-tetrahydro-[2,4′-bipyridine]-4-carboxamide]: the EC50 in test [1] is 88 nM; in the test on IL-6, > 10000 nM; in test [2], 163 nM; at GSK3β kinase, 995 nM; at DYRK1A kinase it was 1 nM; in test [3] it was 5 nM. For the same compound, in test [4], a half-maximal response (EC50) required 95 nM. Moreover, the inhibition at 10 µM with IL-6 came out at 40.7%.
As to `CN1CCC(Oc2ccc(C(=O)Nc3cc4nc(-c5cnn(C)c5)ccc4cn3)cc2)CC1` [Compound 145, N-(2-(1-methyl-1H-pyrazol-4-yl)-1,6-naphthyridin-7-yl)-4-((1-methylpiperidin-4-yl)oxy)benzamide], the EC50 in test [1] is 259 nM; with IL-6, 3250 nM; in test [2], 369 nM; on GSK3β kinase, 2000 nM; on DYRK1A kinase, 5 nM; in test [3], 212 nM. The compound further came in with an EC50 in test [4] of 535 nM.
`CN1CC=C(c2cc(C(=O)Nc3cc4cc(-c5cncc(NC(C)(C)C)n5)cnc4cn3)ccn2)CC1` [Compound 3587, N-(3-(6-(tert-Butylamino)pyrazin-2-yl)-1,7-naphthyridin-6-yl)-1′-methyl-1′,2′,3′,6′-tetrahydro-[2,4′-bipyridine]-4-carboxamide]: the EC50 in test [1] was 357 nM; in the test with IL-6 it was 7660 nM; in test [2], 1440 nM; on GSK3β kinase, > 10000 nM; on DYRK1A kinase, 1 nM; in test [3], 11 nM. In test [4], this compound had an EC50 of 821 nM.
As to `CN1CCC2(CC1)CN(c1cc(C(=O)Nc3cc4cc(-c5cnn(C)c5CN5CCCCC5)cnc4cn3)ccn1)C2` [Compound 3032, N-(3-(1-Methyl-5-(piperidin-1-ylmethyl)-1H-pyrazol-4-yl)-1,7-naphthyridin-6-yl)-2-(7-methyl-2,7-diazaspiro[3.5]nonan-2-yl)isonicotinamide], the concentration giving a half-maximal response (EC50) is 607 nM in test [1]; 1650 nM with IL-6; 1580 nM in test [2]; > 10000 nM at GSK3β kinase; 8 nM on DYRK1A kinase; 127 nM in test [3]. In test [4], this compound gave an EC50 of 599 nM.
